Test systems include COLO 205 colon; MALME-3M melanoma; SK-OV-3 ovarian; KM12 colon; OVCAR-5 ovarian; NCI-H23 lung; M14 melanoma; 786-0 renal; MDA-N.
Experiment in all cases: inhibition of tumour cell growth, NCI panel, 48 h

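Five compound concentrations were applied to cells in 96-well plates for 48 hours; endpoints were derived by simple linear interpolation of the resulting dose-response curve. Abbreviation: GI50, concentration required for 50% inhibition of growth. TGI denotes the concentration required for complete inhibition of growth.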 Where only a bound is given, the exact number is not on record here.

`COc1cc(/C=C2\C(=O)Nc3ccc(O)cc32)cc(OC)c1OC`: the GI50 was 20 µM in the assay with COLO 205 colon; 17.9 µM in the assay on MALME-3M melanoma; 27.8 µM with SK-OV-3 ovarian; 17 µM with KM12 colon; 17.5 µM in the assay with OVCAR-5 ovarian; 6.76 µM in the assay with NCI-H23 lung. Also, the TGI with COLO 205 colon was 59.6 µM; in the assay with MALME-3M melanoma, 44.4 µM; in the assay with SK-OV-3 ovarian it was 98.1 µM; with KM12 colon, greater than 100 µM; in the assay on OVCAR-5 ovarian, 33.5 µM; in the assay with NCI-H23 lung, 24.8 µM.

Take `COC(=O)c1c(C(=O)OC)c2ccccn2c1-c1cc(C)cc2c1C(=O)C=CC2=O`: the TGI turned out to be 13.4 µM in the assay on COLO 205 colon; 14.5 µM with M14 melanoma; 15 µM with MALME-3M melanoma; 16.9 µM in the assay with OVCAR-5 ovarian; 14.8 µM with NCI-H23 lung; 11.3 µM in the assay with 786-0 renal. This compound registered a TGI in the assay on MDA-N of 15.3 µM.

On to `CCc1c(N=[N+]=[N-])c2ccccc2oc1=O`, for which the TGI in the assay on COLO 205 colon, with M14 melanoma, in the assay with MALME-3M melanoma, in the assay on SK-OV-3 ovarian, in the assay with KM12 colon and in the assay on NCI-H23 lung was greater than 100 µM throughout. Moreover, the TGI in the assay on 786-0 renal and in the assay on MDA-N was greater than 100 µM each time.

As to `COc1ccc(C2OC2C(=O)C23CC4CC(CC(C4)C2)C3)cc1` (stereo not given), the TGI in the assay on M14 melanoma, in the assay with MALME-3M melanoma, in the assay with KM12 colon, in the assay on OVCAR-5 ovarian, in the assay with NCI-H23 lung and with 786-0 renal was greater than 100 µM throughout. Further, the TGI with MDA-N is greater than 100 µM.

With `O=C(O)c1ccc2nc(-c3ccccn3)c(-c3ccccn3)nc2c1`, the TGI with COLO 205 colon, with M14 melanoma, in the assay with SK-OV-3 ovarian, with KM12 colon, in the assay on NCI-H23 lung and with 786-0 renal was greater than 100 µM in each case.

Consider `O=c1cc(O)c1=O`, for which the TGI in the assay with COLO 205 colon, in the assay on M14 melanoma, in the assay with MALME-3M melanoma, in the assay on SK-OV-3 ovarian, in the assay on KM12 colon and with OVCAR-5 ovarian was greater than 100 µM each time. Besides, the TGI in the assay with NCI-H23 lung and with MDA-N was greater than 100 µM each time.

With `O[C@@H]1CCCCN1Cc1cc2cc3c(cc2c2cc(OCc4ccccc4)ccc12)OCO3`, the GI50 with COLO 205 colon is 1.28 µM; with M14 melanoma, 1.59 µM; with MALME-3M melanoma it was 1.66 µM; in the assay on SK-OV-3 ovarian it was 1.64 µM; with KM12 colon, 1.59 µM; with OVCAR-5 ovarian, 1.73 µM. In addition, the TGI was 2.66 µM with COLO 205 colon; 2.96 µM with M14 melanoma; 3.37 µM in the assay on MALME-3M melanoma; 3.39 µM with SK-OV-3 ovarian; 3.16 µM in the assay on KM12 colon; 3.93 µM in the assay with OVCAR-5 ovarian.

As to `COCc1nc(C#N)c(N)o1`, the TGI in the assay with COLO 205 colon, with M14 melanoma, in the assay with MALME-3M melanoma, in the assay on SK-OV-3 ovarian, in the assay on KM12 colon and with NCI-H23 lung was greater than 10 µM in each case. Moreover, the TGI with 786-0 renal and with MDA-N was greater than 10 µM throughout.

As to `COc1cc(OC)cc(Oc2nc3ccc(C(F)(F)F)cc3nc2-c2ccccc2)c1`, the TGI with COLO 205 colon, with MALME-3M melanoma, in the assay with SK-OV-3 ovarian, in the assay on KM12 colon, in the assay on OVCAR-5 ovarian and with NCI-H23 lung was greater than 100 µM throughout. Also, the TGI in the assay with 786-0 renal and in the assay on MDA-N was greater than 100 µM in each case.

For `O=c1[nH]nc(Nc2ccc(Cl)cc2)c2nnn(-c3ccc([N+](=O)[O-])cc3)c12`, the TGI in the assay on COLO 205 colon was 49.7 µM; in the assay on M14 melanoma, greater than 100 µM; in the assay with MALME-3M melanoma, greater than 100 µM; with KM12 colon, greater than 100 µM; in the assay on OVCAR-5 ovarian it was greater than 100 µM; in the assay with NCI-H23 lung, 24.9 µM. For the same compound, the TGI with 786-0 renal was 35.5 µM.

In the case of `O=C(NNC(=O)c1cc2ccccc2[nH]1)c1cc2ccccc2[nH]1`, the TGI in the assay with COLO 205 colon, in the assay on M14 melanoma, in the assay on MALME-3M melanoma, with SK-OV-3 ovarian, in the assay with KM12 colon and in the assay on OVCAR-5 ovarian was greater than 100 µM throughout. The TGI in the assay on 786-0 renal and with MDA-N was greater than 100 µM throughout.

Consider `C/C(=C\COP(=O)(O)CP(=O)(O)O)CC/C=C(\C)CNc1ccccc1`, for which the TGI in the assay with COLO 205 colon, in the assay with M14 melanoma, in the assay on SK-OV-3 ovarian, in the assay with KM12 colon, in the assay with OVCAR-5 ovarian and in the assay on NCI-H23 lung was greater than 100 µM each time. This compound yielded a TGI with 786-0 renal greater than 100 µM.

As to `N#CC(C#N)=CNC(=S)Nc1ccc(S(=O)(=O)Nc2nccs2)cc1`, the TGI in the assay with COLO 205 colon, in the assay on M14 melanoma, in the assay on SK-OV-3 ovarian, with KM12 colon, with OVCAR-5 ovarian and with NCI-H23 lung was greater than 100 µM throughout. Further, the TGI in the assay with 786-0 renal and in the assay with MDA-N was greater than 100 µM each time.

Turning to `CC(C)=CCN1c2ccccc2[C@@]2(CC=C(C)C)CCN(C)[C@@H]12`, the TGI in the assay on COLO 205 colon is 26.8 µM; with MALME-3M melanoma it was 38.4 µM; in the assay with SK-OV-3 ovarian it was 77.1 µM; with KM12 colon it was greater than 100 µM; in the assay with OVCAR-5 ovarian, greater than 100 µM; in the assay on NCI-H23 lung, greater than 100 µM. Further, the TGI in the assay on 786-0 renal was 53 µM; in the assay with MDA-N, greater than 100 µM.

As for `O=C(O)CN1CCN2CCOCCN(CC1)CCN(CC(=O)O)CC2`, the TGI with COLO 205 colon, in the assay with M14 melanoma, with MALME-3M melanoma, with SK-OV-3 ovarian, in the assay on KM12 colon and in the assay with OVCAR-5 ovarian was greater than 100 µM throughout. Further, the TGI in the assay on NCI-H23 lung and in the assay with 786-0 renal was greater than 100 µM each time.

`c1ccc2sc(C3(N4CCCCCC4)CCCCC3)cc2c1`: the TGI in the assay on COLO 205 colon was 30 µM; in the assay on M14 melanoma, 53.6 µM; in the assay with SK-OV-3 ovarian, greater than 100 µM; with KM12 colon, 31.8 µM; in the assay on OVCAR-5 ovarian, 37.4 µM; with NCI-H23 lung, 41.5 µM. Also, the TGI in the assay with 786-0 renal came to 42.9 µM; in the assay with MDA-N, 97.6 µM.
